Results as given in US6440965B1, “Substituted pyrimidine derivatives, their preparation and their use in the treatment of neurodegenerative or neurological disorders of the central nervous system” (Krenitsky Pharmaceuticals, Inc., priority 1997, dated 2002).

test system: PC12 cells; experiment: Screen for NGF-like activity in cultured PC12 cells (neurite outgrowth, potentiation of NGF); format: cell-based, rat; settings: 2 days incubation, with or without a limiting concentration of NGF
Method: Cultured PC12 cells (rat adrenal pheochromocytoma from ATCC) have receptors for NGF. Responses include promotion of neurite outgrowth and elevation of choline acetyltransferase (ChAT) (L. A. Greene and A. S. Tischler, Cell Neurobiol., 3, 373 (1982)).
The following assay is substantially as described in H L White and P W Scates, Neurochem. Res., 16, 63 (1991). PC12 cells were cultured at 37° C. in DMEM supplemented with fetal bovine serum, horse serum, glutamine, penicillin, streptomycin and non-essential amino acids. Cultures were split 1:4 every 4 or 5 days. Exponentially dividing cells were plated in fresh medium on collagen-coated 12-well plastic dishes. After allowing one day for cell attachment, the medium was replaced with low serum medium, with or without test compounds and also with or without a limiting concentration of NGF, with each condition in triplicate. The medium may contain up to 0.1% ethanol, which was used as a solvent for most compounds being tested. Cells were examined daily for morphological changes using an Olympus IMT-2 inverted research microscope. After 2 days incubation with test compounds, cells and media were transferred to 1.5 mL Eppendorf tubes. Aliquots of 20 uL were reserved for cell counting and viability determination by trypan blue exclusion. The remaining cell suspensions were centrifuged, and the cell pellets were washed once in serum-free medium and finally resuspended in 30 uL of distilled water containing eserine, an inhibitor of acetylcholinesterase. The suspensions were stored at −80° C. until they were assayed for choline acetyltransferase. Compounds are judged NGF-like in this primary screen if they (1) increase the activity of choline acetyltransferase, (2) enhance NGF-stimulated neurite outgrowth or (3) potentiate and appear additive with the action of NGF itself.

Row | SMILES | NGF-like in vitro activity (ChAT increase, enhancement of NGF-stimulated neurite outgrowth and/or potentiation of NGF)
1 | Nc1ncc(Cc2ccc(Cl)cc2)c(NCCCCO)n1 [2-Amino-4-[2-(2-hydroxyethyl)ethylamino]-5-(4-chlorobenzyl)pyrimidine] | especially potent activities
2 | Nc1ncc(Cc2ccc(Cl)cc2)c(N2CCC(O)CC2)n1 [2-Amino-5-(4-chlorobenzyl)-4-(4-hydroxypiperidino)pyrimidine] | especially potent activities
3 | Nc1ncc(Oc2ccc(Cl)cc2)c(N2CCN(C=O)CC2)n1 [2-amino-5-(4-chlorophenoxy)-4-(4-formylpiperazino)pyrimidine] | especially potent activities
4 | CN1CCN(c2nc(N)ncc2Oc2ccc(Cl)cc2)CC1 [2-amino-5-(4-chlorophenoxy)-4-(4-methylpiperazino)pyrimidine] | especially potent activities

test system: not given; experiment: not given; settings: not given

Row | melting point | SMILES
5 | 229 to 231 °C | O=C(Nc1ccccc1)Nc1ncc(Oc2ccc(Cl)cc2)c(N2CCOCC2)n1
6 | 181 to 182 °C | CN(C)c1nc(N)ncc1Cc1ccccc1
7 | 123 to 125 °C | CC(C)(C)C(=O)OCCN1CCN(c2nc(N)ncc2Oc2ccc(Cl)cc2)CC1
8 | 93 to 95 °C | Nc1ncc(Oc2ccc(Cl)cc2)c(N2CCNCC2)n1
9 | 121 to 123 °C | Nc1ncc(Oc2ccc(Cl)cc2)c(N2CCN(CCO)CC2)n1
10 | 140 to 141 °C | Cl.Nc1ncc(Oc2ccc(Cl)cc2)c(NCCOCCO)n1
11 | 138 to 140 °C | Nc1ncc(Oc2ccc(Cl)cc2)c(N2CCOCC2)n1
12 | 153 to 157 °C | CC(=O)N1CCN(c2nc(N)ncc2Oc2ccc(Cl)cc2)CC1

test system: working memory; experiment: not given; settings: mice; cited from earlier work

Row | SMILES | age induced working memory deficits
13 | O=C(CCn1cnc2c(=O)[nH]cnc21)Nc1ccc(C(=O)O)cc1 [AIT-082, 4[[3-(1,6-dihydro-6-oxo-9-purin-9-yl)-1-oxopropyl]amino]benzoic acid] | restore age induced working memory deficits

test system: PC-12 cells; experiment: not given; settings: cited from earlier work

Row | SMILES | NGF action in cultured PC-12 cells
14 | O=C(CCn1cnc2c(=O)[nH]cnc21)Nc1ccc(C(=O)O)cc1 [AIT-082, 4[[3-(1,6-dihydro-6-oxo-9-purin-9-yl)-1-oxopropyl]amino]benzoic acid] | enhance NGF action
